ChEMBL document CHEMBL3046355, “Design, synthesis, and herbicidal activities of novel 2-cyanoacrylates containing isoxazole moieties” (2010)

Experiments:
Assay type in all cases: functional
[1] = system: Brassica napus; experiment: Herbicidal activity against Brassica napus (oilseed rape) assessed as inhibition of weed growth at 75 g/ha using postemergence treatment protocol; conditions: post-emergence
[2] = system: Amaranthus retroflexus; experiment: Herbicidal activity against Amaranthus retroflexus assessed as inhibition of weed growth at 1.5 kg/ha using preemergence treatment protocol; conditions: pre-emergence
[3] = system: Amaranthus retroflexus; experiment: Herbicidal activity against Amaranthus retroflexus assessed as inhibition of weed growth at 1.5 kg/ha using postemergence treatment protocol; conditions: post-emergence
[4] = system: Amaranthus retroflexus; experiment: Herbicidal activity against Amaranthus retroflexus assessed as inhibition of weed growth at 750 g/ha using postemergence treatment protocol; conditions: post-emergence
[5] = system: Brassica napus; experiment: Herbicidal activity against Brassica napus (oilseed rape) assessed as inhibition of weed growth at 750 g/ha using postemergence treatment protocol; conditions: post-emergence
[6] = system: Brassica napus; experiment: Herbicidal activity against Brassica napus (oilseed rape) assessed as inhibition of weed growth at 375 g/ha using postemergence treatment protocol; conditions: post-emergence
[7] = system: Amaranthus retroflexus; experiment: Herbicidal activity against Amaranthus retroflexus assessed as inhibition of weed growth at 75 g/ha using postemergence treatment protocol; conditions: post-emergence
[8] = system: Amaranthus retroflexus; experiment: Herbicidal activity against Amaranthus retroflexus assessed as inhibition of weed growth at 150 g/ha using postemergence treatment protocol; conditions: post-emergence
[9] = system: Digitaria sanguinalis; experiment: Herbicidal activity against Digitaria sanguinalis (hairy crabgrass) assessed as inhibition of weed growth at 1.5 kg/ha using pre-emergence treatment protocol
[10] = system: Digitaria sanguinalis; experiment: Herbicidal activity against Digitaria sanguinalis (hairy crabgrass) assessed as inhibition of weed growth at 1.5 kg/ha using post-emergence treatment protocol
[11] = system: Brassica napus; experiment: Herbicidal activity against Brassica napus (oilseed rape) assessed as inhibition of weed growth at 150 g/ha using postemergence treatment protocol; conditions: post-emergence
[12] = system: Brassica napus; experiment: Herbicidal activity against Brassica napus (oilseed rape) assessed as inhibition of weed growth at 1.5 kg/ha using postemergence treatment protocol; conditions: post-emergence
[13] = system: Brassica napus; experiment: Herbicidal activity against Brassica napus (oilseed rape) assessed as inhibition of weed growth at 1.5 kg/ha using preemergence treatment protocol; conditions: pre-emergence
[14] = system: Echinochloa crus-galli; experiment: Herbicidal activity against Echinochloa crus-galli (barnyard grass) assessed as inhibition of weed growth at 1.5 kg/ha using postemergence treatment protocol; conditions: post-emergence
[15] = system: Echinochloa crus-galli; experiment: Herbicidal activity against Echinochloa crus-galli (barnyard grass) assessed as inhibition of weed growth at 1.5 kg/ha using preemergence treatment protocol; conditions: pre-emergence
[16] = system: Amaranthus retroflexus; experiment: Herbicidal activity against Amaranthus retroflexus assessed as inhibition of weed growth at 375 g/ha using postemergence treatment protocol; conditions: post-emergence

With `CCOCCOC(=O)/C(C#N)=C(\NCc1cc(-c2ccc(OC)cc2)no1)C(C)C` the inhibition at 75 g/ha [1] was 82.5%, the inhibition at 1500 g/ha [2] was 45.2% and the inhibition at 1500 g/ha [3] was 100%. For the same molecule, the inhibition at 750 g/ha [4] was 100%, the inhibition at 750 g/ha [5] was 100% and the inhibition at 375 g/ha [6] was 100%. For the same molecule, the inhibition at 75 g/ha [7] was 65.2%, the inhibition at 150 g/ha [8] was 93.5% and the inhibition at 1500 g/ha [9] was 0%. The inhibition at 1500 g/ha [10] was 14.3%, the inhibition at 150 g/ha [11] was 100% and the inhibition at 1500 g/ha [12] was 100%. The inhibition at 1500 g/ha [13] was 40.9%, the inhibition at 1500 g/ha [14] was 0% and the inhibition at 1500 g/ha [15] was 0%. For the same molecule, the inhibition at 375 g/ha [16] was 100%.
